Data: PubChem BioAssay (NCI)
Several values for one entry are separate records, joined by “and”; a condition that tells them apart may be missing. Equal entries are not always repeated.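 Grown in 96-well plates, cells were treated for 48 hours with each compound at five concentrations. Insufficient inhibition: endpoint recorded as highest concentration tested. Abbreviation: GI50, concentration required for 50% inhibition of growth. TGI: total growth inhibition.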

Legend:
Test in all cases: growth of human tumour cells (NCI), 48 h
[1] = tested on: PC-3 prostate
[2] = tested on: HT29 colon
[3] = tested on: K-562 leukemia
[4] = tested on: SK-MEL-28 melanoma
[5] = tested on: SK-OV-3 ovarian
[6] = tested on: SK-MEL-2 melanoma
[7] = tested on: COLO 205 colon
[8] = tested on: HCT-116 colon
[9] = tested on: TK-10 renal
[10] = tested on: NCI-H23 lung
[11] = tested on: SNB-19 CNS
[12] = tested on: RXF 393 renal
[13] = tested on: SF-539 CNS
[14] = tested on: T-47D breast
[15] = tested on: 786-0 renal
[16] = tested on: HOP-62 NSCLC
[17] = tested on: MDA-MB-435
[18] = tested on: SNB-75 CNS
[19] = tested on: SF-295 CNS
[20] = tested on: MOLT-4 leukemia
[21] = tested on: NCI/ADR-RES ovarian
[22] = tested on: OVCAR-3 ovarian
[23] = tested on: OVCAR-5 ovarian
[24] = tested on: HCC-2998 colon
[25] = tested on: U251 CNS
[26] = tested on: A549 NSCLC
[27] = tested on: LOX IMVI melanoma
[28] = tested on: HL-60(TB) leukemia
[29] = tested on: NCI-H522 lung
[30] = tested on: OVCAR-4 ovarian
[31] = tested on: OVCAR-8 ovarian
[32] = tested on: UO-31 renal
[33] = tested on: DU-145 prostate
[34] = tested on: HOP-92 NSCLC
[35] = tested on: SF-268 CNS
[36] = tested on: MCF7 breast
[37] = tested on: M14 melanoma
[38] = tested on: MDA-MB-231 breast
[39] = tested on: HS 578T breast
[40] = tested on: SW-620 colon
[41] = tested on: CAKI-1 renal
[42] = tested on: ACHN renal
[43] = tested on: UACC-62 melanoma
[44] = tested on: KM12 colon
[45] = tested on: CCRF-CEM leukemia
[46] = tested on: SR leukemia
[47] = tested on: A498 renal
[48] = tested on: SK-MEL-5 melanoma
[49] = tested on: MALME-3M melanoma
[50] = tested on: UACC-257 melanoma
[51] = tested on: RPMI-8226 leukemia
[52] = tested on: EKVX NSCLC
[53] = tested on: BT-549 breast
[54] = tested on: NCI-H226 lung
[55] = tested on: HCT-15 colon
[56] = tested on: NCI-H460 lung
[57] = tested on: IGROV1 ovarian
[58] = tested on: SN12C renal

C=CC(=O)N1CC2(CC(n3nc(-c4ccc5c(cnn5C)c4)c(-c4c(Cl)c(C)cc5[nH]ncc45)c3C)C2)C1
GI50 [1]: 3.59 µM
TGI [1]: 22.8 µM
GI50 [2]: 3.62 µM
TGI [2]: 29.5 µM
GI50 [3]: 2.78 µM
TGI [3]: > 100 µM
GI50 [4]: 2.44 µM
TGI [4]: 5.44 µM
GI50 [5]: 5.17 µM
TGI [5]: 18.2 µM
GI50 [6]: 1.91 µM
TGI [6]: 3.63 µM
GI50 [7]: 2.1 µM
TGI [7]: 4.17 µM
GI50 [8]: 1.83 µM
TGI [8]: 3.74 µM
GI50 [9]: 3.18 µM
TGI [9]: 12.8 µM
TGI [10]: 1.72 µM
GI50 [11]: 3.43 µM
TGI [11]: 13.5 µM
GI50 [12]: 1.6 µM
TGI [12]: 3.49 µM
GI50 [13]: 2.15 µM
TGI [13]: 5.17 µM
GI50 [14]: 3.97 µM
TGI [14]: 19.3 µM
GI50 [15]: 3.71 µM
TGI [15]: 15.4 µM
TGI [16]: 19.5 µM
GI50 [17]: 2.72 µM
TGI [17]: 7.65 µM
GI50 [18]: 2.57 µM
TGI [18]: 11.9 µM
GI50 [19]: 2.16 µM
TGI [19]: 5.43 µM
GI50 [20]: 1.74 µM
TGI [20]: 9 µM
GI50 [21]: 2.23 µM
TGI [21]: 5.21 µM
GI50 [22]: 1.98 µM
TGI [22]: 4.18 µM
GI50 [23]: 4.03 µM
TGI [23]: 13.9 µM
GI50 [24]: 1.85 µM
TGI [24]: 3.36 µM
GI50 [25]: 1.89 µM
TGI [25]: 4.07 µM
GI50 [26]: 3.05 µM
TGI [26]: 12.5 µM
GI50 [27]: 1.69 µM
TGI [27]: 3.55 µM
GI50 [28]: 2.58 µM
TGI [28]: 9.27 µM
GI50 [29]: 2.09 µM
TGI [29]: 5.15 µM
GI50 [30]: 3.52 µM
TGI [30]: 14.8 µM
GI50 [31]: 2.13 µM
TGI [31]: 4.84 µM
GI50 [32]: 1.97 µM
TGI [32]: 4.68 µM
GI50 [33]: 3.11 µM
TGI [33]: 9.45 µM
GI50 [34]: 3.36 µM
TGI [34]: 14.3 µM
GI50 [35]: 4.5 µM
TGI [35]: 20 µM
GI50 [36]: 2.2 µM
TGI [36]: 7.03 µM
GI50 [37]: 2.88 µM
TGI [37]: 11.2 µM
GI50 [38]: 2.54 µM
TGI [38]: 6.62 µM
GI50 [39]: 5.56 µM
TGI [39]: 62.9 µM
GI50 [40]: 3.23 µM
TGI [40]: 10.3 µM
GI50 [41]: 3.95 µM
TGI [41]: 14.3 µM
GI50 [42]: 2.01 µM
TGI [42]: 4.81 µM
GI50 [43]: 1.94 µM
TGI [43]: 4.04 µM
GI50 [44]: 1.92 µM
TGI [44]: 3.72 µM
GI50 [45]: 2.67 µM
TGI [45]: 14.8 µM
GI50 [46]: 1.61 µM
TGI [46]: 6.12 µM
GI50 [47]: 3.99 µM
TGI [47]: 13.3 µM
GI50 [48]: 1.61 µM
TGI [48]: 3.02 µM
GI50 [49]: 2.44 µM
TGI [49]: 5.09 µM
GI50 [50]: 2.16 µM
TGI [50]: 6.57 µM
GI50 [51]: 2.13 µM
TGI [51]: 6.72 µM
GI50 [52]: 3.23 µM
TGI [52]: 11.1 µM
GI50 [53]: 2.57 µM
TGI [53]: 7.9 µM
GI50 [54]: 2.63 µM
TGI [54]: 8.75 µM
GI50 [55]: 1.54 µM
TGI [55]: 3.05 µM
GI50 [56]: 3.12 µM
TGI [56]: 10.3 µM
GI50 [57]: 2.76 µM
TGI [57]: 8.18 µM
GI50 [58]: 3.08 µM
TGI [58]: 12.1 µM

Cn1ncc(Cl)c1-c1cc(C(=O)N[C@H](CN)Cc2ccc(F)c(F)c2)oc1Cl
GI50 [1]: 0.263 µM and 0.133 µM
TGI [1]: 9.07 µM and > 6.73 µM
GI50 [2]: 1.15 µM and 0.346 µM
TGI [2]: 15 µM and > 10 µM
GI50 [3]: 2.34 µM and 3.01 µM
TGI [3]: 7.35 µM and > 8.68 µM
GI50 [4]: 1.02 µM and 0.935 µM
TGI [4]: 4.78 µM and 3.2 µM
GI50 [5]: 0.232 µM and 0.259 µM
TGI [5]: 3.75 µM and 5.04 µM
GI50 [6]: 2.44 µM and 1.77 µM
TGI [6]: 6.82 µM and 4.72 µM
GI50 [7]: 0.593 µM and 0.575 µM
TGI [7]: 5.84 µM and 3.22 µM
GI50 [8]: 1.67 µM and 1.76 µM
TGI [8]: 8.09 µM and > 6.83 µM
GI50 [9]: 0.961 µM and 0.203 µM
TGI [9]: 8.74 µM and 3.92 µM
GI50 [10]: 5.17 µM and 2.44 µM
TGI [10]: 19.7 µM and > 10 µM
GI50 [11]: 0.486 µM and 0.252 µM
TGI [11]: 12.9 µM and > 10 µM
GI50 [12]: 0.0361 µM and 0.0338 µM
TGI [12]: 0.534 µM and 0.705 µM
GI50 [13]: 0.161 µM and 0.121 µM
TGI [13]: 3.22 µM and 2.14 µM
GI50 [14]: 0.0193 µM and 0.0245 µM
GI50 [15]: 0.0371 µM and 0.0295 µM
TGI [15]: 3.79 µM and 2.1 µM
GI50 [16]: 2.14 µM and 2.7 µM
TGI [16]: 14 µM and > 10 µM
GI50 [17]: 1.23 µM and 0.889 µM
TGI [17]: 10.4 µM and > 6.54 µM
GI50 [18]: 0.0508 µM and 0.027 µM
TGI [18]: 1.4 µM and 0.846 µM
GI50 [19]: 0.145 µM and 0.111 µM
TGI [19]: 5.04 µM and 3.27 µM
GI50 [20]: 0.0931 µM and 0.1 µM
TGI [20]: 2.25 µM and > 6.73 µM
GI50 [21]: 10.2 µM and 2.94 µM
TGI [21]: 24.5 µM and > 10 µM
GI50 [22]: 1.97 µM and 1.6 µM
TGI [22]: 15 µM and > 10 µM
GI50 [23]: 0.426 µM and 2.45 µM
TGI [23]: 9.12 µM and > 10 µM
TGI [24]: 6.23 µM and 2.08 µM
GI50 [25]: 0.289 µM and 0.171 µM
TGI [25]: 13.5 µM and > 9.51 µM
GI50 [26]: 1.57 µM and 1.2 µM
TGI [26]: 15 µM and > 10 µM
GI50 [27]: 2.65 µM and 1.44 µM
TGI [27]: 19.9 µM and 4.19 µM
GI50 [28]: 2.9 µM and 2.05 µM
TGI [28]: 9.62 µM and 6.76 µM
GI50 [29]: 4.82 µM and 2.04 µM
TGI [29]: 16 µM and > 8.82 µM
GI50 [30]: 4.06 µM and 5.4 µM
TGI [30]: 17.2 µM and > 10 µM
GI50 [31]: 9.13 µM and 4.99 µM
TGI [31]: 23.7 µM and > 10 µM
GI50 [32]: 0.97 µM and 0.36 µM
TGI [32]: 11.7 µM and > 7.68 µM
GI50 [33]: 4.25 µM and 2.48 µM
TGI [33]: 17.8 µM and > 10 µM
GI50 [34]: 0.139 µM and 0.191 µM
TGI [34]: 2.42 µM and 1.42 µM
GI50 [35]: 3.36 µM and 2.08 µM
TGI [35]: 17.1 µM and > 10 µM
GI50 [36]: 0.257 µM and 0.139 µM
TGI [36]: 9.66 µM and 2.89 µM
GI50 [37]: 1.59 µM and 1.49 µM
TGI [37]: 5.7 µM and 3.71 µM
GI50 [38]: 2.59 µM and 1.72 µM
TGI [38]: 9.87 µM and 5.76 µM
GI50 [39]: 0.0905 µM and 0.126 µM
TGI [39]: 2.08 µM and 2.86 µM
GI50 [40]: 7.82 µM and 4.1 µM
TGI [40]: 21.8 µM and > 10 µM
GI50 [41]: 1.9 µM and 0.87 µM
TGI [41]: 14.2 µM and > 5.2 µM
GI50 [42]: 2.23 µM and 1.86 µM
TGI [42]: 14.2 µM and > 10 µM
GI50 [43]: 0.625 µM and 0.494 µM
TGI [43]: 3.04 µM and 2.65 µM
GI50 [44]: 0.59 µM and 0.255 µM
TGI [44]: 6.73 µM and 4.43 µM
GI50 [45]: 0.197 µM and 0.196 µM
TGI [45]: 11.8 µM and > 10 µM
TGI [46]: 2.74 µM and 4.36 µM
GI50 [47]: 0.0303 µM and 0.0404 µM
TGI [47]: 0.3 µM and 0.472 µM
GI50 [48]: 2.15 µM and 1.48 µM
TGI [48]: 5.8 µM and 2.87 µM
GI50 [49]: 0.36 µM and 0.687 µM
TGI [49]: 1.61 µM and 2.59 µM
GI50 [50]: 1.64 µM and 1.21 µM
TGI [50]: 7.21 µM and 3.16 µM
GI50 [51]: 2.05 µM and 2.62 µM
TGI [51]: 7.96 µM and > 7.98 µM
GI50 [52]: 2.77 µM
TGI [52]: > 10 µM
GI50 [53]: 0.511 µM and 0.412 µM
TGI [53]: 3.71 µM and 3.02 µM
GI50 [54]: 5.91 µM and 2.29 µM
TGI [54]: 24.7 µM and > 10 µM
GI50 [55]: 1.16 µM and 0.662 µM
TGI [55]: 13.8 µM and > 10 µM
GI50 [56]: 0.152 µM and 0.163 µM
TGI [56]: 13 µM and > 10 µM
GI50 [57]: 0.0268 µM and 0.0201 µM
TGI [57]: 3.62 µM and 1.43 µM
GI50 [58]: 3.48 µM and 1.69 µM
TGI [58]: 17.4 µM and > 10 µM
